Experiments:
[1] = tested on: acute myeloid leukemia cells (EOL1); test: MTT assay of EOL1 cells treated with AZD1208 and chloroquine alone and in combination; CI by CompuSyn; assay type: cell-based, human; settings: EOL1, 48 hours, scale 0-1
Description: (§1) General experimental procedure: 20,000 (EOL1) cells were seeded per well in 96-well plates. […] At 48 hours the MTT metabolism indicative of number of live cells was measured by MTT assay (Promega, Cat: G4000). The resulting values were used to evaluate the Fa (fraction affected) values, which were plugged into the CompuSyn software to calculate the combination indices (CI values) at ED50, ED75, ED90 and ED95 (ED—Effective dose of combination).
The data were analyzed using CompuSyn, an algorithm based on the Chao-Talalay method for detecting drug synergy (3).
Table 3. […] CI values were determined using CompuSyn at 50%, 75%, 90%, and 95% growth inhibition (GI) Cell growth was measured using standard 3-(4,5-dimethylthiazol-2-yl)-2,5-diphenyltetrazolium bromide (MTT) assays.

Molm16 cells = Molm16 cells treated with AZD1208 in combination with autophagy inhibitors (FA values, CI values); assay type: cell-based; parameters: key: fraction of cells affected by treatment (0–1)
Description: as §1
These are values of drug dose and effect (fraction of cells affected by the treatment—FA values). The treatment time is 72 hours.
(§2) The data presented in this Table 5 is from an experiment in which Molm16 cells were treated with AZD1208 in combination with verteporfin (AZD1208 μM:verteporfin μM=1:200). These are values of drug dose and effect (fraction of cells affected by the treatment—FA values). The treatment time is 72 hours.
as §2, with “6” for “5”, “Bafilomycin A1” for “verteporfin”, “μM:bafilomycin A1 μM=1:1).” for “μM:verteporfin μM=1:200).”, “48” for “72”

With N[C@@H]1CCCN(c2c(/C=C3/SC(=O)NC3=O)cccc2-c2ccccc2)C1 [AZD1208, (5E)-5-[[2-[(3R)-3-aminopiperidin-1-yl]-3-phenylphenyl]methylidene]-1,3-thiazolidine-2,4-dione] the “Effect (FA, fraction affected)” value ([1]; AZD1208 alone 0.05 μM) was 0.505, the “Effect (FA, fraction affected)” value ([1]; AZD1208 alone 0.1 μM) was 0.639 and the “Effect (FA, fraction affected)” value ([1]; AZD1208 alone 0.25 μM) was 0.386. For the same compound, the “Effect (FA, fraction of cells affected)” value (Molm16 cells; AZD1208 alone 0.00625 μM, Molm16, 48 hours, Table 6) was 0.1716, the “Effect (FA, fraction of cells affected)” value (Molm16 cells; AZD1208 alone 0.0125 μM, Molm16, 48 hours, Table 6) was 0.2259 and the “Effect (FA, fraction of cells affected)” value (Molm16 cells; AZD1208 alone 0.0125 μM, Molm16, 72 hours, Table 4) was 0.2413. The “Effect (FA, fraction of cells affected)” value (Molm16 cells; AZD1208 alone 0.025 μM, Molm16, 48 hours, Table 6) was 0.3615, the “Effect (FA, fraction of cells affected)” value (Molm16 cells; AZD1208 alone 0.025 μM, Molm16, 72 hours, Table 4) was 0.354 and the “Effect (FA, fraction of cells affected)” value (Molm16 cells; AZD1208 alone 0.05 μM, Molm16, 72 hours, Table 4) was 0.5497. The “Effect (FA, fraction of cells affected)” value (Molm16 cells; AZD1208 alone 0.05 μM, Molm16, 72 hours, Table 5) was 0.4847 and the “Effect (FA, fraction of cells affected)” value (Molm16 cells; AZD1208 alone 0.1 μM, Molm16, 72 hours, Table 5) was 0.6474.
In the case of CO/C1=C\C(C)=C\[C@@H](C)[C@@H](O)[C@@H](C)C/C(C)=C/C=C/[C@H](OC)[C@@H]([C@@H](C)[C@@H](O)[C@H](C)[C@@]2(O)C[C@@H](O)[C@H](C)[C@@H](C(C)C)O2)OC1=O [Bafilomycin A1], the “Effect (FA, fraction of cells affected)” value (Molm16 cells; Bafilomycin A1 alone 0.00625 μM, Molm16, 48 hours) is reported as 0.4744, the “Effect (FA, fraction of cells affected)” value (Molm16 cells; Bafilomycin A1 alone 0.0125 μM, Molm16, 48 hours) is reported as 0.7998 and the “Effect (FA, fraction of cells affected)” value (Molm16 cells; Bafilomycin A1 alone 0.025 μM, Molm16, 48 hours) is reported as 0.8279.
For CCN(CC)CCCC(C)Nc1ccnc2cc(Cl)ccc12 (stereo not shown) [chloroquine], the “Effect (FA, fraction of cells affected)” value (Molm16 cells; chloroquine alone 10 μM, Molm16, 72 hours) was 0.05357, the “Effect (FA, fraction of cells affected)” value (Molm16 cells; chloroquine alone 20 μM, Molm16, 72 hours) was 0.1376 and the “Effect (FA, fraction of cells affected)” value (Molm16 cells; chloroquine alone 40 μM, Molm16, 72 hours) was 0.4647.
With Verteporfin the “Effect (FA, fraction of cells affected)” value (Molm16 cells; Verteporfin alone 10 μM, Molm16, 72 hours) was 0.08412 and the “Effect (FA, fraction of cells affected)” value (Molm16 cells; Verteporfin alone 20 μM, Molm16, 72 hours) was 0.2143.

Reference: US11389440B2, “PIM kinase inhibitors in combination with autophagy inhibitors for treatment of cancers” (UNIVERSITY OF MARYLAND, BALTIMORE COUNTY, priority 2017, dated 2022)
